Assay results taken from patent publication US20240368177A1, “5-AMINO-6,8-DIHYDRO-1H-FURO[3,4-d]PYRROLO[3,2-b]PYRIDINE-2-CARBOXAMIDE DERIVATIVES AS MTA-COOPERATIVE INHIBITORS OF PRMT5” (BeiGene Switzerland GmbH, priority 2023, published 2024).

Columns and labels:
HCT116-mock-RNA-KO = assay: Cell killing in HCT116 isogenic pair (Cell Titer-Glo viability), mock knock-out cells with MTAP wildtype genotype; type: cell-based, human; settings: Homo sapiens, HCT-116, 144 h, 6 days incubation, 0-10 μM
Summary of the method: (§1)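 Viability was read by CellTiter-Glo luminescence after 6 days of compound treatment (0–10 μM final, 37° C, 5% CO2), and IC50 values were fitted. The isogenic HCT116 pair, MTAP-KO clone versus mock-KO MTAP-wildtype, was grown in RPMI 1640 plus 10% FBS and seeded the day before.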

HCT116-MTAP-KO = assay: Cell killing in HCT116 isogenic pair (Cell Titer-Glo viability), MTAP knock-out cells; type: cell-based, human; settings: Homo sapiens, HCT-116, 144 h, 6 days incubation, 0-10 μM, * = more than 50% viability inhibition at tested concentration without a full curve
Summary of the method: as §1

Compound | IC50 (HCT116-mock-RNA-KO) [nM] | IC50 (HCT116-MTAP-KO) [nM]
Nc1nc2cc(C(=O)N(Cc3ncc(C4CC4)cc3F)C3CCC3)[nH]c2c2c1COC2 [Example 69, 5-amino-N-cyclobutyl-N-((5-cyclopropyl-3-fluoropyridin-2-yl)methyl)-6,8-dihydro-1H-furo[3,4-d]pyrrolo[3,2-b]pyridine-2-carboxamide] | 2700 | 26
CC(C)[C@@H](C)N(Cc1ncc(C2CC2)cc1F)C(=O)c1cc2nc(N)c3c(c2[nH]1)COC3 [Example 70, (R)-5-amino-N-((5-cyclopropyl-3-fluoropyridin-2-yl)methyl)-N-(3-methylbutan-2-yl)-6,8-dihydro-1H-furo[3,4-d]pyrrolo[3,2-b]pyridine-2-carboxamide] | 1180 | 12
C[C@H]1OCc2c1c(N)nc1cc(C(=O)N(C)[C@H]3COCc4cc(Br)ccc43)[nH]c21 [Example 71, (R)-5-amino-N—((R)-7-bromoisochroman-4-yl)-N,6-dimethyl-6,8-dihydro-1H-furo[3,4-d]pyrrolo[3,2-b]pyridine-2-carboxamide] | 6160 | 728
C[C@H]1OCc2c1c(N)nc1cc(C(=O)N(C)[C@@H]3COCc4cc(Br)ccc43)[nH]c21 [Example 72, (R)-5-amino-N—((S)-7-bromoisochroman-4-yl)-N,6-dimethyl-6,8-dihydro-1H-furo[3,4-d]pyrrolo[3,2-b]pyridine-2-carboxamide] | 1010 | 8.2
CCN(C(=O)c1cc2nc(N)c3c(c2[nH]1)COC3)[C@@H]1COCc2cc(Cl)ccc21 [Example 73, (S)-5-amino-N-(7-chloroisochroman-4-yl)-N-ethyl-6,8-dihydro-1H-furo[3,4-d]pyrrolo[3,2-b]pyridine-2-carboxamide] | 2490 | 34
CCN(C(=O)c1cc2nc(N)c3c(c2[nH]1)COC3)[C@H]1COCc2cc(Cl)ccc21 [Example 74, (R)-5-amino-N-(7-chloroisochroman-4-yl)-N-ethyl-6,8-dihydro-1H-furo[3,4-d]pyrrolo[3,2-b]pyridine-2-carboxamide] | > 10000 | 1070
CCN(C(=O)c1cc2nc(N)c3c(c2[nH]1)COC3)[C@@H]1COCc2cc(F)cc(F)c21 [Example 75, (S)-5-amino-N-(5,7-difluoroisochroman-4-yl)-N-ethyl-6,8-dihydro-1H-furo[3,4-d]pyrrolo[3,2-b]pyridine-2-carboxamide] | > 10000 | 41
CCN(C(=O)c1cc2nc(N)c3c(c2[nH]1)COC3)[C@H]1COCc2cc(F)cc(F)c21 [Example 76, (R)-5-amino-N-(5,7-difluoroisochroman-4-yl)-N-ethyl-6,8-dihydro-1H-furo[3,4-d]pyrrolo[3,2-b]pyridine-2-carboxamide] | > 10000 | 2110
CCN(C(=O)c1cc2nc(N)c3c(c2[nH]1)COC3)[C@@H]1COc2cc(C(F)(F)F)ccc21 [Example 77, (S)-5-amino-N-ethyl-N-(6-(trifluoromethyl)-2,3-dihydrobenzofuran-3-yl)-6,8-dihydro-1H-furo[3,4-d]pyrrolo[3,2-b]pyridine-2-carboxamide] | > 10000 | 51
C[C@@H]1OC[C@H](N(C)C(=O)c2cc3nc(N)c4c(c3[nH]2)COC4)c2ccc(Br)cc21 [Example 78, 5-amino-N-((1S,4R)-7-bromo-1-methylisochroman-4-yl)-N-methyl-6,8-dihydro-1H-furo[3,4-d]pyrrolo[3,2-b]pyridine-2-carboxamide] | 2930 | 624
C[C@H]1OC[C@H](N(C)C(=O)c2cc3nc(N)c4c(c3[nH]2)COC4)c2ccc(Br)cc21 [Example 79, 5-amino-N-((1R,4R)-7-bromo-1-methylisochroman-4-yl)-N-methyl-6,8-dihydro-1H-furo[3,4-d]pyrrolo[3,2-b]pyridine-2-carboxamide] | 3280 | 525
C[C@@H]1OC[C@@H](N(C)C(=O)c2cc3nc(N)c4c(c3[nH]2)COC4)c2ccc(Br)cc21 [Example 80, 5-amino-N-((1S,4S)-7-bromo-1-methylisochroman-4-yl)-N-methyl-6,8-dihydro-1H-furo[3,4-d]pyrrolo[3,2-b]pyridine-2-carboxamide] | > 10000 | 351
C[C@H]1OC[C@@H](N(C)C(=O)c2cc3nc(N)c4c(c3[nH]2)COC4)c2ccc(Br)cc21 [Example 81, 5-amino-N-((1R,4S)-7-bromo-1-methylisochroman-4-yl)-N-methyl-6,8-dihydro-1H-furo[3,4-d]pyrrolo[3,2-b]pyridine-2-carboxamide] | 1020 | 9.7
CN(C(=O)c1cc2nc(N)c3c(c2[nH]1)COC3)[C@@H]1COCc2cc(C(F)(F)F)cc(F)c21 [Example 82, (S)-5-amino-N-(5-fluoro-7-(trifluoromethyl)isochroman-4-yl)-N-methyl-6,8-dihydro-1H-furo[3,4-d]pyrrolo[3,2-b]pyridine-2-carboxamide] | 1840 | 13
C[C@H]1OC[C@@H](N(C)C(=O)c2cc3nc(N)c4c(c3[nH]2)CO[C@@H]4C)c2ccc(C(F)(F)F)cc21 [Example 83, (R)-5-amino-N,6-dimethyl-N-((1R,4S)-1-methyl-7-(trifluoromethyl)isochroman-4-yl)-6,8-dihydro-1H-furo[3,4-d]pyrrolo[3,2-b]pyridine-2-carboxamide] | 556 | 7.2
CN(C(=O)c1cc2nc(N)c3c(c2[nH]1)COC3)[C@@H]1COCc2cc(I)ccc21 [Example 84, (S)-5-amino-N-(7-iodoisochroman-4-yl)-N-methyl-6,8-dihydro-1H-furo[3,4-d]pyrrolo[3,2-b]pyridine-2-carboxamide] | 2200 | 10
CN(C(=O)c1cc2nc(N)c3c(c2[nH]1)COC3)[C@@H]1COCc2nc(C(F)(F)F)ccc21 [Example 85, (S)-5-amino-N-methyl-N-(2-(trifluoromethyl)-5,8-dihydro-6H-pyrano[3,4-b]pyridin-5-yl)-6,8-dihydro-1H-furo[3,4-d]pyrrolo[3,2-b]pyridine-2-carboxamide] | > 10000 | 113
CN(C(=O)c1cc2nc(N)c3c(c2[nH]1)COC3)[C@H]1COCc2nc(C(F)(F)F)ccc21 [Example 86, (R)-5-amino-N-methyl-N-(2-(trifluoromethyl)-5,8-dihydro-6H-pyrano[3,4-b]pyridin-5-yl)-6,8-dihydro-1H-furo[3,4-d]pyrrolo[3,2-b]pyridine-2-carboxamide] | > 10000 | 1900
CN(C(=O)c1cc2nc(N)c3c(c2[nH]1)COC3)[C@@H]1COCc2nc(C3CC3)ccc21 [Example 87, (S)-5-amino-N-(2-cyclopropyl-5,8-dihydro-6H-pyrano[3,4-b]pyridin-5-yl)-N-methyl-6,8-dihydro-1H-furo[3,4-d]pyrrolo[3,2-b]pyridine-2-carboxamide] | > 10000 | 67
CN(C(=O)c1cc2nc(N)c3c(c2[nH]1)COC3)[C@H]1COCc2nc(C3CC3)ccc21 [Example 88, (R)-5-amino-N-(2-cyclopropyl-5,8-dihydro-6H-pyrano[3,4-b]pyridin-5-yl)-N-methyl-6,8-dihydro-1H-furo[3,4-d]pyrrolo[3,2-b]pyridine-2-carboxamide] | > 10000 | 1410
